The text below walks through data of ChEMBL document CHEMBL1136924 (J Med Chem, 2009).

Each structure is given as a SMILES string. Activity calls are given as the source filed them. No cut-off for these calls is given here.

The subject of experiment [1] is Rattus norvegicus. The experiment is described as follows: Antagonist activity at 5HT3 receptor in urethane-anesthetized Sprague-Dawley rat assessed as half-blockade of 1-phenylbiguanide-induced bradycardia at 30 ug/kg, iv administered 5 mins before 1-phenylbiguanide challenge measured after 5 to 30 mins post-treatment by von Bezold-Jarisch reflex test. In kind it is functional, organism-based.

Experiment [2] relates to Rattus norvegicus. The experiment is described as follows: Partial agonist activity at 5HT3 receptor in iv dosed urethane-anesthetized Sprague-Dawley rat assessed as induction of bradycardia measured after 5 to 30 mins post-treatment by von Bezold-Jarisch reflex test. The following applies: read-out: ID50 (the source's name). In kind it is functional.

`N/C(CN1CCN(c2nc3cc(F)ccc3n3cccc23)CC1)=N\O`: the result with Rattus norvegicus [1] was Active. Besides, in the experiment on Rattus norvegicus [2], the ED50 was found to be 0.03 mg/kg.
